Test results reported in patent US20150224129A1 (priority 2012, published 2015).

Assays:
S. pneumoniae serotype 1 = tested on: S. pneumoniae serotype 1; parameters: species or system mice; conditions: mouse, in vivo
S. pneumoniae = conditions: exogenous activation of lung iNKT cells; high dose of bacteria; no previous influenza; cited from earlier work
iNKT cells = assay: Analysis of lung iNKT cell activation (intracellular IFN-γ, flow cytometry); format: in vivo, mice; conditions: lung iNKT cells of IAV-experienced animals (day 7 post-IAV) compared with naïve animals; i.n. administration

With CCCCCCCCCCCCCCCCCCCCCCCCCC(=O)N[C@@H](CO[C@H]1O[C@H](CO)[C@H](O)[C@H](O)[C@H]1O)[C@H](O)[C@H](O)CCCCCCCCCCCCCC [α-GalCer, α-galactosylceramide] as the compound, how does the “protection against S. pneumoniae challenge, as assessed by the enhanced survival rate” value (S. pneumoniae serotype 1) read?
The value was ~70%.

What about the “clearance of S. pneumoniae” value (S. pneumoniae) of the same compound?
The value was “leads to the clearance of S. pneumoniae”.

What about the “iNKT cell activation (IFN-γ production) in response to α-GalCer” value (iNKT cells) of the same compound?
The value was “leads to iNKT cell activation”.
